The structures appear in SMILES notation.

The source of these data is patent US6610677B2, “Pyrazole compounds useful as protein kinase inhibitors” (Vertex Pharmaceuticals Incorporated, priority 2000, dated 2003).

The target of the test is T1, GSK-3β (AA 1-420) (Homo sapiens, UniProt P49841).
T1 construct: GSK-3β (AA 1-420)
T1 sequence (P49841 whole entry, the tested form may be a part): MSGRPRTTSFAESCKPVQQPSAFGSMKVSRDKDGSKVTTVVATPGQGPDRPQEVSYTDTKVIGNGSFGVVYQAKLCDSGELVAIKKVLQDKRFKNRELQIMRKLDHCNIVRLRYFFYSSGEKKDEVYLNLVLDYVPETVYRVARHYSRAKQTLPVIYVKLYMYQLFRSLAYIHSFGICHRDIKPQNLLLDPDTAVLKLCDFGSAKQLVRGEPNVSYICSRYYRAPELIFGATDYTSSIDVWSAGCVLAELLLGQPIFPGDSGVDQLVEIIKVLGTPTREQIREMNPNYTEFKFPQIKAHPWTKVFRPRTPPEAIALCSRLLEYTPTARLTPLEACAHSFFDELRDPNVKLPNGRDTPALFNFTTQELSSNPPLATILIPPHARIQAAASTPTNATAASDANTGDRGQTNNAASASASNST
Briefly: Ki determination for the inhibition of GSK-3 (coupled enzyme system). The test is classed as biochemical. Particulars: 20 μM ATP, 300 μM peptide, 20 nM GSK-3β, 30° C. How it is done: Compounds were screened for their ability to inhibit GSK-3β (AA 1-420) activity using a standard coupled enzyme system (Fox et al. (1998) Protein Sci. 7, 2249). Reactions were carried out in a solution containing 100 mM HEPES (pH 7.5), 10 mM MgCl2, 25 mM NaCl, 300 μM NADH, 1 mM DTT and 1.5% DMSO. Final substrate concentrations in the assay were 20 μM ATP (Sigma Chemicals, St Louis, Mo.) and 300 μM peptide (HSSPHQS(PO3H2)EDEEE, American Peptide, Sunnyvale, Calif.). Reactions were carried out at 30° C. and 20 nM GSK-3β. Final concentrations of the components of the coupled enzyme system were 2.5 mM phosphoenolpyruvate, 300 μM NADH, 30 μg/ml pyruvate kinase and 10 μg/ml lactate dehydrogenase.
An assay stock buffer solution was prepared containing all of the reagents listed above with the exception of ATP and the test compound of interest. The assay stock buffer solution (175 μl) was incubated in a 96 well plate with 5 μl of the test compound of interest at final concentrations spanning 0.002 μM to 30 μM at 30° C. for 10 min. Typically, a 12 point titration was conducted by preparing serial dilutions (from 10 mM compound stocks) with DMSO of the test compounds in daughter plates. The reaction was initiated by the addition of 20 μl of ATP (final concentration 20 μM). Rates of reaction were obtained using a Molecular Devices Spectramax plate reader (Sunnyvale, Calif.) over 10 min at 30° C. The Ki values were determined from the rate data as a function of inhibitor concentration.
For orientation: Ki means the dissociation constant of the complex between target and ligand, obtained from inhibition or displacement. The low end stands for tighter binding, the high end for weaker binding. Regarding `CC(C)(C)c1cc(Nc2nc(-c3ccccc3C(F)(F)F)nc3ccccc23)n[nH]1` [II-49, (5-tert-Butyl-2H-pyrazol-3-yl)-[2-(2-trifluoromethyl-phenyl)-quinazolin-4-yl]-amine], the Ki was in the range of 100 to 1000 nM.
Then `FC(F)(F)c1ccccc1-c1nc(Nc2cc(-c3ccccc3)[nH]n2)c2ccccc2n1` [II-50, (5-Phenyl-2H-pyrazol-3-yl)-[2-(2-trifluoromethylphenyl)-quinazolin-4-yl]-amine], with 100 to 1000 nM; and `FC(F)(F)c1ccccc1-c1nc(Nc2n[nH]c(-c3ccccc3)c2-c2ccccc2)c2ccccc2n1` [II-51, (4,5-Diphenyl-2H-pyrazol-3-yl)-[2-(2-trifluoromethylphenyl)-quinazolin-4-yl]-amine], with 1000 to 20000 nM.
The value for `NC(=O)c1c[nH]nc1Nc1nc(-c2ccccc2C(F)(F)F)nc2ccccc12` [II-52, (4-Carbamoyl-2H-pyrazol-3-yl)-[2-(2-trifluoromethylphenyl)-quinazolin-4-yl]-amine] was 1000 to 20000 nM; that for `COCc1cc(Nc2nc(-c3ccccc3C(F)(F)F)nc3ccccc23)n[nH]1` [II-56, (5-Methoxymethyl-2H-pyrazol-3-yl)-[2-(2-trifluoromethyl-phenyl)-quinazolin-4-yl]-amine] was below 100 nM.
Molecule `Fc1cccc2c(Nc3nc(-c4ccccc4C(F)(F)F)nc4ccccc34)n[nH]c12` [II-60, (7-Fluoro-1H-indazol-3-yl)-[2-(2-trifluoromethyl-phenyl)-quinazolin-4-yl]-amine] returned a Ki below 100 nM.
The value for `Fc1ccc2[nH]nc(Nc3nc(-c4c(Cl)cccc4Cl)nc4ccccc34)c2c1` [II-62, [2-(2,6-Dichloro-phenyl)-quinazolin-4-yl]-(5-fluoro-1H-indazol-3-yl)-amine] was below 100 nM; that for `FC(F)(F)c1ccccc1-c1nc(Nc2n[nH]c3cccc(C(F)(F)F)c23)c2ccccc2n1` [II-65, (4-Trifluoromethyl-1H-indazol-3-yl)-[2-(2-trifluoromethyl-phenyl)-guinazolin-4-yl]-amine] was 1000 to 20000 nM; that for `Clc1cccc(Cl)c1-c1nc(Nc2n[nH]c3ccccc23)c2ccccc2n1` [II-66, [2-(2,6-Dichloro-phenyl)-guinazolin-4-yl]-(1H-indazol-3-yl)-amine] was below 100 nM.
The value for `FC(F)(F)c1ccccc1-c1nc(Nc2n[nH]c3c(C(F)(F)F)cccc23)c2ccccc2n1` [II-68, (7-Trifluoromethyl-1H-indazol-3-yl)-[2-(2-trifluoromethyl-phenyl)-quinazolin-4-yl]-amine] was 1000 to 20000 nM.
Then `Fc1cc(F)c2[nH]nc(Nc3nc(-c4ccccc4C(F)(F)F)nc4ccccc34)c2c1` [II-71, (5,7-Difluoro-1H-indazol-3-yl)-[2-(2-trifluoromethyl-phenyl)-quinazolin-4-yl]-amine], with below 100 nM; and `FC(F)(F)c1ccccc1-c1nc(Nc2n[nH]c3cccc(-n4cccc4)c23)c2ccccc2n1` [II-72, (4-Pyrrol-1-yl-1H-indazol-3-yl)-[2-(2-trifluoromethyl-phenyl)-quinazolin-4-yl]-amine], with 1000 to 20000 nM.
Molecule `Fc1cccc2c(Nc3nc(-c4ccccc4Cl)nc4ccccc34)n[nH]c12` [II-74, [2-(2-Chloro-phenyl)-quinazolin-4-yl]-(7-fluoro-1H-indazol-3-yl)-amine] gave a Ki below 100 nM.
Then `Fc1c(C(F)(F)F)ccc2c(Nc3nc(-c4ccccc4C(F)(F)F)nc4ccccc34)n[nH]c12` [II-81, (7-Fluoro-6-trifluoromethyl-1H-indazol-3-yl)-[2-(2-trifluoromethyl-phenyl)-quinazolin-4-yl]-amine], with below 100 nM.
Then `Fc1cc(F)c2[nH]nc(Nc3nc(-c4ccc(C(F)(F)F)cc4C(F)(F)F)nc4ccccc34)c2c1` [II-83, [2-(2,4-Bis-trifluoromethyl-phenyl)-quinazolin-4-yl]-(5,7-difluoro-1H-indazol-3-yl)-amine], with below 100 nM; and `Fc1ccc(-c2nc(Nc3n[nH]c4c(F)cc(F)cc34)c3ccccc3n2)c(C(F)(F)F)c1` [II-84, (5,7-Difluoro-1H-indazol-3-yl)-[2-(4-fluoro-2-trifluoromethyl-phenyl)-quinazolin-4-yl]-amine], with below 100 nM.
The value for `Fc1cc(F)c2[nH]nc(Nc3nc(-c4ccccc4Br)nc4ccccc34)c2c1` [II-85, [2-(2-Bromo-phenyl)-quinazolin-4-yl]-(5,7-difluoro-1H-indazol-3-yl)-amine] was below 100 nM; that for `Fc1cc(F)c2[nH]nc(Nc3nc(-c4ccc(Cl)cc4Cl)nc4ccccc34)c2c1` [II-87, [2-(2,4-Dichloro-phenyl)-quinazolin-4-yl]-(5,7-Difluoro-1H-indazol-3-yl)-amine] was below 100 nM.
`Fc1cc(F)c2[nH]nc(Nc3nc(-c4cc(C(F)(F)F)ccc4Cl)nc4ccccc34)c2c1` [II-88, [2-(2-Chloro-5-trifluoromethyl-phenyl)-quinazolin-4-yl]-(5,7-Difluoro-1H-indazol-3-yl)-amine] had a Ki below 100 nM.
Then `Fc1cccc2[nH]nc(Nc3nc(-c4ccccc4C(F)(F)F)nc4ccccc34)c12` [II-89, (4-Fluoro-1H-indazol-3-yl)-[2-(2-trifluoromethyl-phenyl)-quinazolin-4-yl]-amine], with 1000 to 20000 nM.
Then `COc1cccc2c(Nc3n[nH]c4c(F)cccc34)nc(-c3ccccc3C(F)(F)F)nc12` [II-92, (7-Fluoro-1H-indazol-3-yl)-[8-methoxy-2-(2-trifluoromethyl-phenyl)-quinazolin-4-yl]-amine], with below 100 nM; and `O=[N+]([O-])c1ccc(-c2nc(Nc3n[nH]c4c(F)cc(F)cc34)c3ccccc3n2)c(Cl)c1` [II-95, [2-(2-Chloro-4-nitro-phenyl)-quinazolin-4-yl]-(5,7-difluoro-1H-indazol-3-yl)-amine], with below 100 nM; and `FC(F)(F)c1ccccc1-c1nc(Nc2n[nH]c3c2CCCC3)c2ccccc2n1` [II-97, (4,5,6,7-Tetrahydro-1H-indazol-3-yl)-[2-(2-trifluoromethyl-phenyl)-quinazolin-4-yl]-amine], with 100 to 1000 nM.
Then `FC(F)(F)c1ccccc1-c1nc(Nc2n[nH]c3cccnc23)c2ccccc2n1` [II-98, (1H-Pyrazolo[4,3-b]pyridin-3-yl)-[2-(2-trifluoromethyl-phenyl)-quinazolin-4-yl]-amine], with 1000 to 20000 nM; and `Cc1cc(C)c2c(Nc3nc(-c4ccccc4C(F)(F)F)nc4ccccc34)n[nH]c2n1` [II-100], with 1000 to 20000 nM; and `O=c1cc2[nH]nc(Nc3nc(-c4ccccc4C(F)(F)F)nc4ccccc34)c2nn1-c1ccccc1` [II-101, (6-Oxo-5-phenyl-5,6-dihydro-1H-pyrazolo[4,3-c]pyridazin-3-yl)-[2-(2-trifluoromethyl-phenyl)-quinazolin-4-yl]-amine], with 100 to 1000 nM.
Molecule `FC(F)(F)c1ccccc1-c1nc(Nc2n[nH]c3ccccc23)c2cccnc2n1` [II-108, (1H-Indazol-3-yl)-[2-(2-trifluoromethyl-phenyl)-pyrido[2,3-d]pyrimidin-4-yl]-amine] gave a Ki below 100 nM.
The value for `Fc1cc(F)c2[nH]nc(Nc3nc(-c4ccccc4C(F)(F)F)nc4ncccc34)c2c1` [II-109, (5,7-Difluoro-1H-indazol-3-yl)-[2-(2-trifluoromethyl-phenyl)-pyrido[2,3-d]pyrimidin-4-yl]-amine] was below 100 nM; that for `Clc1ccccc1-c1nc(Nc2n[nH]c3ccccc23)c2cccnc2n1` [II-110, [2-(2-Chloro-phenyl)-pyrido[2,3-d]pyrimidin-4-yl]-(1H-indazol-3-yl)-amine] was below 100 nM.
`Fc1ccc2[nH]nc(Nc3nc(-c4ccccc4C(F)(F)F)nc4c3CCCCCC4)c2c1` [II-111, (5-Fluoro-1H-indazol-3-yl)-[2-(2-trifluoromethyl-phenyl)-5,6,7,8,9,10-hexahydro-cyclooctapyrimidin-4-yl]-amine]: the Ki was below 100 nM.
The value for `Fc1ccc2[nH]nc(Nc3nc(-c4ccccc4Cl)nc4c3CCC4)c2c1` [II-112, [2-(2-Chloro-phenyl)-6,7-dihydro-5H-cyclopentapyrimidin-4-yl]-(5-fluoro-1H-indazol-3-yl)-amine] was below 100 nM.
The value for `FC(F)(F)c1ccccc1-c1nc2c(c(Nc3n[nH]c4ccccc34)n1)CCC2` [II-113, (1H-Indazol-3-yl)-[2-(2-trifluoromethyl-phenyl)-6,7-dihydro-5H-cyclopentapyrimidin-4-yl]-amine] was below 100 nM; that for `Fc1cccc2c(Nc3nc(-c4ccccc4C(F)(F)F)nc4c3CCC4)n[nH]c12` [II-114, (7-Fluoro-1H-indazol-3-yl)-[2-(2-trifluoromethyl-phenyl)-6,7-dihydro-5H-cyclopentapyrimidin-4-yl]-amine] was below 100 nM; that for `Fc1cc(F)c2[nH]nc(Nc3nc(-c4ccccc4C(F)(F)F)nc4c3CCC4)c2c1` [II-115, (5,7-Difluoro-1H-indazol-3-yl)-[2-(2-trifluoromethyl-phenyl)-6,7-dihydro-5H-cyclopentapyrimidin-4-yl]-amine] was below 100 nM.
